Several values for one entry are separate records, joined by “and”; a condition that tells them apart may be missing. Identical values can stand only once.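 Assay format: 96-well plates, 48-hour exposure. GI50: concentration for 50% inhibition of growth. The concentration for full growth arrest is given as TGI.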

The results in this text go back to PubChem BioAssay (NCI).

What all share (assay): NCI anticancer screen, dose series, 48 h
The subject of test [1] is CAKI-1 renal.
The subject of test [2] is CCRF-CEM leukemia.
Test [3] relates to IGROV1 ovarian.
Test [4] has as its system NCI-H460 lung.
Test [5] deals with RXF 393 renal.
Test [6] deals with SF-268 CNS.
In test [7] the test system is SN12C renal.
The test system of test [8] is SNB-19 CNS.
In test [9] the test system is U251 CNS.

For `COC1=CC(=O)c2c(cc3c(c2O)-c2c(OC)cc4cc5c(c(O)c4c2OC(=O)CC(C)(O)C3)C(=O)CC(C)(O)C5)C1=O` (centres undefined), the TGI in test [1] is 5.87 µM; in test [2], 6.59 µM; in [3], 3.97 µM; in [4] it was 5.24 µM; in [5] it was 3.89 µM; in test [6], 9.26 µM. In addition, the TGI is 3.27 µM in [7], 4.13 µM in test [8] and 9.92 µM in test [9].

Take `OCCCc1cnco1`: the TGI in test [1], in test [2], in [3], in test [4], in test [5] and in test [6] was more than 100 µM throughout. The TGI in test [7], in [8] and in test [9] was more than 100 µM throughout.

In the case of `O=C(N/C=C/C=C/Sc1ccccc1)OCc1ccccc1`, the TGI in [1] is 37.2 µM; in test [2], more than 100 µM; in test [3], 42.1 µM; in test [4], 57 µM; in [5], 35.6 µM; in test [6], 34.2 µM. The TGI is 31.6 µM in test [7], more than 100 µM in [8] and 34 µM in test [9].

Take `Cc1cc2c(cc1C)[n+](=O)c(C(=O)CC(=O)C(=O)Nc1ccccc1C(C)C)c(C)n2[O-]`: the TGI in test [1], in [2], in [3], in test [4], in test [5] and in [6] was more than 100 µM each time. Moreover, the TGI in [7], in test [8] and in test [9] was more than 100 µM each time.

With `O=C([O-])CCc1ccccc1.O=C([O-])CCc1ccccc1.O=C([O-])CCc1ccccc1.O=C([O-])CCc1ccccc1.[Mo+2].[Mo+2]`, the GI50 in test [1], in test [2], in test [3], in test [4], in test [5] and in [6] was more than 100 µM in each case. For the same compound, the GI50 in test [7], in test [8] and in test [9] was more than 100 µM in each case. Also, the TGI in test [1], in test [2], in test [3], in test [4], in test [5] and in test [6] was more than 100 µM each time. The TGI in test [7], in test [8] and in test [9] was more than 100 µM each time.

As for `CC(C)(CN1CCCCC1)C(=O)CC(SCCN)c1ccc(Cl)cc1` (centres undefined), the TGI worked out at 5.85 µM in test [1]; 5.19 µM in [2]; 8.48 µM in test [3]; 5.43 µM in test [4]; 5.94 µM in test [5]; 9.36 µM in [6]. The TGI in [7] came out at 3.42 µM; in test [8] it was 4.54 µM; in [9], 11.7 µM.

With `N#Cc1c(-c2ccccc2)cc(-c2cccs2)c(C#N)c1N`, the TGI in [1], in test [2], in test [4], in [6], in test [7] and in test [8] was more than 100 µM throughout. This compound showed a TGI in test [9] of more than 100 µM.

For the compound `CCc1nc2ccccc2c(=O)n1/N=C(\N=Nc1ccc(Cl)cc1)c1ccccc1`, the TGI was 46.4 µM in [1]; more than 100 µM in test [2]; more than 100 µM in test [3]; more than 100 µM in test [4]; more than 75.8 µM in test [5]; 95.3 µM in test [6]. For the same compound, the TGI in test [7] was more than 100 µM; in test [8], 82.6 µM; in test [9] it was more than 87.8 µM.

`O=C(/C=C/c1nnc2n(Cc3ccccc3)c(=O)c3c4c(sc3n12)CCCC4)c1ccccc1`: the TGI is more than 100 µM in [1]; 4.69 µM and 0.699 µM in [2]; more than 100 µM in test [3]; more than 100 µM in test [4]; more than 100 µM in test [6]; more than 100 µM in test [8]. In addition, in test [9], the TGI came out at 7.76 µM. The GI50 in test [2] is 0.328 µM and 0.205 µM; in test [3], more than 100 µM; in test [4], more than 100 µM; in test [6] it was 4.59 µM; in test [8] it was more than 100 µM; in [9], 2.22 µM.

Regarding `Fc1ccc(C2SCc3nc4ccccc4n32)cc1F` (centres undefined), the TGI in test [1] is more than 100 µM; in [2], 97 µM; in test [3] it was more than 100 µM; in test [4], more than 100 µM; in test [5] it was 80 µM; in test [6], more than 100 µM. The TGI in [7], in test [8] and in [9] was more than 100 µM each time.

Turning to `C#CCn1c(=O)c2cccnc2n(CC#C)c1=O`, the TGI in test [1], in test [2], in test [4], in [5], in [6] and in test [7] was more than 100 µM throughout. Further, the TGI in [8] and in test [9] was more than 100 µM each time.

Regarding `COC(=O)c1nc(C(=O)OC)c2c([nH]c3ccccc32)c1C(=O)OC`, the TGI in test [2], in test [3], in test [4], in [5], in test [7] and in [9] was more than 100 µM in each case.

In the case of `NC(=S)N/N=C(\CCC(=O)Nc1ccccc1[N+](=O)[O-])CC(=O)c1ccco1`, the TGI in test [1], in [2], in test [3], in test [4], in [5] and in [6] was more than 100 µM in each case. The TGI in test [7], in test [8] and in test [9] was more than 100 µM each time.
